# What was measured:
# [1] = system: GSK3β, active β-catenin and Snail; experiment: Western blotting of GSK3β, active β-catenin, Snail and EMT proteins in HCT116 cells; format: cell-based, human; conditions: HCT116
# Procedure: FIGS. 4A to 4L. EpEX induces EMT and invasion by stabilizing β-catenin and Snail through decreasing GSK3β activity. (FIG. 4A) The protein expression of EMT markers and regulators was detected by Western blotting in Wild-type (WT) or EpCAM knockout (KO) HCT116 cells after EpEX treatment. (FIG. 4B) Cell invasion was examined by Transwell chamber assay with matrigel. (FIG. 4C) WT or KO HCT116 and HT29 cells were starved for 16 h, then treated with 0.5 nM of HGF with 2% FBS for 24 h. EMT-related protein expression (E-cadherin, vimentin, and Snail) was examined by Western blotting. (FIG. 4D) WT or KO HCT116 and HT29 cells were treated with HGF (0.5 nM) for 24 h. Invasion by HCT116 and HT29 cells was examined by Transwell chamber assay with matrigel. (FIG. 4E) HCT116 and HT29 cells were starved for 16 h, then treated with 0.5 nM of HGF with 2% FBS for 24 h. EMT-related protein expression (E-cadherin, Vimentin, and Snail) was examined by Western blotting. (FIG. 4F) HCT116 and HT29 cells were starved for 16 h, then treated with 0.5 nM of HGF with 2% FBS for 24 h. Cell invasion was assessed by a Transwell assay with matrigel. (FIG. 4G) HCT116 cells after shLuc and shHGFR treatment were treated with 50 nM of EpEX-His. HCT116 cells after shLuc and shHGFR treatment were treated with 50 nM of EpEX-His with 2% FBS for 24 h. EMT-related protein expression (E-cadherin, Vimentin, and Snail) was examined by Western blotting. (FIG. 4H) Cell invasion was examined by Transwell chamber assay with matrigel. (FIG. 4I) Starved HCT116 cells were treated SU (10 μM) for 1 h, followed by treatment with EpEX-His (50 nM) for 24 h. Phosphorylated GSK3β, active-β-catenin, and Snail were detected by Western blotting. (FIG. 4J) HCT116 cells were starved for 16 h, then treated with 50 nM EpEX-His for 24 min. AKT inhibitor LY294002 (25 μM), ERK inhibitor U0126 (20 μM), or PF-562271 (10 μM) were applied 1 h before EpEX treatment. Protein expression of phosphorylated GSK3β and Snail was examined by Western blotting. (FIG. 4K) HCT116 cells were starved for 16 h, then treated with 50 nM EpEX, and SU (10 μM), LY (25 μM), UO (20 μM) or PF (10 μM). Cell invasion was examined by Transwell chamber assay with matrigel. (FIG. 4L) Protein expression was analyzed by Western blotting in EpEX-His (50 nM) treated HCT116 cells after treatment with or without 2 μM GSK3β inhibitor (BIO) for 24 h. Quantification of the normalized protein expression in the right panel.
# FIGS. 5A to 5I. EpEX promotes Snail protein stability through inhibition of ubiquitination-mediated proteasomal degradation. (FIG. 5A) The gene expression of EMT markers and regulators was detected by qRT-PCR in Wild-type (WT) or EpCAM knockout (KO) of HCT116 and HT29 cells. (FIG. 5B) Stability of Snail protein in WT or KO of HCT116 cells. Cells were treated with cyclohexamide (CHX) 100 μg/ml at the indicated intervals and subjected to Western blotting. (FIG. 5C) The protein expression of Snail was analyzed in WT or KO HCT116 cells by treating with or without […] MG132 (proteasome inhibitor) for 6 h, followed by Western blotting. (FIG. 5D) WT or KO HCT116 cells were treated with 10 μM MG132 for 6 h before cell collection. The lysates were subjected to immunoprecipitation using anti-Snail antibody and input. Western blotting was performed with the indicated antibodies to detect ubiquitinated Snail protein. (FIG. 5E) Stability of Snail protein in HCT116 cells after EpEX (50 nM) treatment for 24 h. Cells were treated with cyclohexamide (CHX; 100 μg/ml) for the indicated intervals and then subjected to Western blotting. (FIG. 5F) Expression of the gene encoding SNAIL was detected by qRT-PCR in HCT116 cells after EpEX (50 nM) treatment for 24 h. (FIG. 5G) The protein expression of Snail in HCT116 was analyzed cells by Western blotting after EpEX (50 nM) treatment for 24 h, and treatment with or without 10 μM MG132 (proteasome inhibitor) for 6 h. […]
# [2] = system: HT29 cells; experiment: Apoptosis assay, annexin V-FITC/PI double labeling, HT29; format: cell-based, human; conditions: 10 μg/ml 24 h, FIG. 7C
# Procedure: FIGS. 7A to 7G. EpAb2-6 binds EpEX and induces apoptosis by F(ab′)2 and inhibits regulated intramembrane proteolysis (RIP) activation and HGFR signaling. (FIG. 7A) Binding affinity of IgG EpAb2-6 (mouse) and F(ab′)2 to EpEX-His (1 μg/ml) coated overnight was checked using ELISA (OD450). (FIG. 7B) HCT116 cells were treated with 100 μg/ml control IgG, Fc, or F(ab′)2 of EpAb2-6 for 24 h. The apoptotic and necrotic cells were quantified by fluorescein annexin V-FITC/PI double labeling. (FIG. 7C) HCT116 and HT29 cells were treated with 10 μg/ml control IgG, MT201, humanized EpAb2-6 (hEpAb2-6) or mouse hybridoma EbAb2-6 (mEpAb2-6) for 24 h. The apoptotic and necrotic cells were quantified by fluorescein annexin V-FITC/PI double labeling. (FIG. 7D) HCT116 cells were treated with 10 μg/ml control IgG, MT201, hEpAb2-6 or mEpAb2-6 for 16 h, followed by treatment with EpEX-His (50 nM) for 15 min. Levels of phosphorylated HGFR, AKT, and ERK, and (FIG. 7E) RIP proteins ADAM17 and presenilin 2 were examined by Western blotting. Anti-EpCAM antibody and crizotinib coordinately induces apoptosis in colon cancer cells. (FIG. 7F) HCT116 and HT29 cells were treated with 10 μg/ml NMIgG or EpAb2-6 and 4 μM HGFR inhibitor crizotinib for 24 h. The apoptotic and necrotic cells were quantified by fluorescein annexin V-FITC/PI double labeling. (FIG. 7G) HCT116 and HT29 cells were treated with 10 μg/ml NMIgG or EpAb2-6 and 10 μM HGFR inhibitor crizotinib. Cell invasion was assessed by a Transwell assay with matrigel after 24 h.
# Cells were seeded and treated with 10 μg/ml mAb or inhibitor for 6 h; an unrelated mouse myeloma immunoglobulin used at appropriate dilution served as the IgG2a (Invitrogen #02-6200) isotype control. Apoptotic cells were detected using Annexin V-FITC and PI, and were analyzed using a flow cytometer (BD Immmunocytometry Systems). Early apoptosis was measured with the Annexin V-FITC Apoptosis Detection kit II (BD Pharmingen). Late apoptotic nuclei were detected with propidium iodide (PI) staining.
# [3] = LY294002 25 μM, U0126 20 μM or PF-562271 10 μM 1 h before 50 nM EpEX-His for 24 min, FIG. 4J
# [4] = SU 10 μM 1 h, then EpEX-His 50 nM 24 h, FIG. 4I
Molecule,"EpEX-mediated GSK3β activity [1, 3]","EpEX-mediated Snail protein expression [1, 3]",apoptosis [2],also measured
CN(c1ncccc1CNc1nc(Nc2ccc3c(c2)CC(=O)N3)ncc1C(F)(F)F)S(C)(=O)=O [PF-562271],attenuate EpEX-mediated GSK3β activity,attenuate,–,–
N#CC(=C(/N)Sc1ccccc1N)/C(C#N)=C(\N)Sc1ccccc1N [U0126],attenuate EpEX-mediated GSK3β activity,attenuate,–,–
"MT201: human anti-EpCAM antibody, adecatumumab (MT201)",–,–,did not show such effects,–
"Cc1[nH]c(C=C2C(=O)Nc3ccc(S(=O)(=O)N(C)c4cccc(Cl)c4)cc32)c(C)c1C(=O)N1CCN(C)CC1 (stereo in doubt) [SU11274, (3Z)-N-(3-Chlorophenyl)-3-({3,5-dimethyl-4-[(4-methylpiperazin-1-yl)carbonyl]-1H-pyrrol-2-yl}methylene)-N-methyl-2-oxo-2,3-dihydro-1H-indole-5-sulfonamide]",–,–,–,"EpEX-induced active β-catenin and Snail protein expression [1, 4]: abolish EpEX-induced active β-catenin and Snail protein expression; EpEX-mediated GSK3β activity [1, 4]: attenuate EpEX-mediated GSK3β activity"
"EpAb2-6: anti-EpCAM neutralizing monoclonal antibody targeting EpEX; VH SEQ ID NO: 15, VL SEQ ID NO: 16 (antibody, listed as Homo sapiens, V domains shown) VH: VKLQESGPELKKPGETVKISCKASGYTFTDYSMHWVKQAPGKGLKWMGWINTETGEPTYADDFKGRFAFSLETSASTAYLQINNLKNEDTATYFCARTAVYWGQGTTVTVSS VL: DIQMTQSPSSLSASLGERVSLTCRASQEISVSLSWLQQEPDGTIKRLIYATSTLDSGVPKRFSGSRSGSDYSLTISSLESEDFVDYYCLQYASYPWTFGGGTKLEIKRADAAPTVS",–,–,inducing apoptosis,–
